Assay results as given in patent publication US7157452B2, “Substituted 4,9-dihydrocyclopenta{imn}phenanthridine-5-ones derivatives thereof and their uses” (MGI GP, Inc., priority 2001, dated 2007).
Like-named read-outs stand apart in the source and are kept apart here.

Molecular target: T1, purified recombinant human PARP (Homo sapiens, UniProt P09874)
T1 construct: purchased Trevigan (Gaithersburg, Md.)
Experiment: PARP enzyme assay with [3H]NAD, scintillation counting
Format: biochemical
Method: The reaction is initiated by incubating the mixture at 25° C. After 15 minutes of incubation, the reaction is terminated by adding 500 microliters of ice cold 20% (w/v) trichloroacetic acid. The precipitate formed is transferred onto a glass fiber filter (Packard Unifilter-GF/B) and washed three times with ethanol. After the filter is dried, the radioactivity is determined by scintillation counting.
Using the PARP assay described above, approximate IC50 (μM) values were obtained as shown in the following Table III, which also include specific embodiments of the compounds of the present invention: […]

[1] = Table III, read-out: approximate IC50

T1 sequence (P09874 whole entry): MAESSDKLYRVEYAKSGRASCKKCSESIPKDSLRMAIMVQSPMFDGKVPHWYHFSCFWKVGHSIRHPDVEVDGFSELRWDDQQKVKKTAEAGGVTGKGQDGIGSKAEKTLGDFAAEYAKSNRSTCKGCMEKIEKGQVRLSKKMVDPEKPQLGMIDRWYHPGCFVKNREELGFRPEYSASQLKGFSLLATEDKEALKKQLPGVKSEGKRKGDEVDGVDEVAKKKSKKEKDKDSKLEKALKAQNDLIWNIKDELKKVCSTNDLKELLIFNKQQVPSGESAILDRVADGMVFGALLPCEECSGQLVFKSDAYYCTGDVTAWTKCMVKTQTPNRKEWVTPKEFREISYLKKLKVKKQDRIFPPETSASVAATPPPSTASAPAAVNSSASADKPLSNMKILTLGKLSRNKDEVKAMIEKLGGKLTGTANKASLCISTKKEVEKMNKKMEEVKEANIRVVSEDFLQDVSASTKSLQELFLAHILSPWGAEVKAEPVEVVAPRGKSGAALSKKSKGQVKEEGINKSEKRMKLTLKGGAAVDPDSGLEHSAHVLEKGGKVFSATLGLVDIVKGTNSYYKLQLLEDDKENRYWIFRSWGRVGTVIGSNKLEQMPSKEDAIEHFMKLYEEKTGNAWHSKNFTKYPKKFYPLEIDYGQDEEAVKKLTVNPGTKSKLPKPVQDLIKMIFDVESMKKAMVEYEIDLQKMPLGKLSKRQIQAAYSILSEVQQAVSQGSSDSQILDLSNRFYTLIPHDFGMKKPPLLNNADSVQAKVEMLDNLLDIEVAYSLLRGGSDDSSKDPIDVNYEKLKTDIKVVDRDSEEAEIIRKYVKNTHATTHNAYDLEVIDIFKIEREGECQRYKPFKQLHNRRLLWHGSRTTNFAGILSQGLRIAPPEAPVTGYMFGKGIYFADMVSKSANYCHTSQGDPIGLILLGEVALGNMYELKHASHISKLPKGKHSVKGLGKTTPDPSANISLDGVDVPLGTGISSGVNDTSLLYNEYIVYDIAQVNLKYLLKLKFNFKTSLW

IC50 [1]	IC50 (examples table, read-out: IC50)	SMILES
137 nM	137 nM	CCOC(=O)C1CCCN(S(=O)(=O)c2ccc3[nH]c(=O)c4cccc5c4c3c2C5)C1 (stereo not shown) [Example 2, 1-(5-Oxo-5,9-dihydro-4H-cyclopenta[lmn]phenanthridine-1-sulfonyl)-piperidine-3-carboxylic acid ethyl ester]
247 nM	247 nM	O=c1[nH]c2ccc(S(=O)(=O)N3CCN(CC4CCCO4)CC3)c3c2c2c(cccc12)C3 (stereo not shown) [Example 3]
1130 nM	1130 nM	O=c1[nH]c2ccc(S(=O)(=O)NCCCc3ccccc3)c3c2c2c(cccc12)C3 [Example 4]
89 nM	89 nM	O=c1[nH]c2ccc(S(=O)(=O)NCCN3CCCC3)c3c2c2c(cccc12)C3 [Example 5]
63 nM	63 nM	O=c1[nH]c2ccc(S(=O)(=O)NCCCN3CCOCC3)c3c2c2c(cccc12)C3 [Example 6]
269 nM	269 nM	O=c1[nH]c2ccc(S(=O)(=O)N3CCN(c4ccc(C(F)(F)F)cc4)CC3)c3c2c2c(cccc12)C3 [Example 7]
335 nM	335 nM	O=c1[nH]c2ccc(S(=O)(=O)N3CCN(c4ccc(F)cc4)CC3)c3c2c2c(cccc12)C3 [Example 8]
211 nM	211 nM	O=c1[nH]c2ccc(S(=O)(=O)N3CCN(c4ccc(F)cc4F)CC3)c3c2c2c(cccc12)C3 [Example 9]
129 nM	129 nM	CN1CCN(NS(=O)(=O)c2ccc3[nH]c(=O)c4cccc5c4c3c2C5)CC1 [Example 10]
49 nM	49 nM	O=C(CNCCN1CCCC1)Nc1ccc2[nH]c(=O)c3cccc4c3c2c1C4 [Example 11]
64 nM	64 nM	CN1CCN(CCCNS(=O)(=O)c2ccc3[nH]c(=O)c4cccc5c4c3c2C5)CC1 [Example 12]
48 nM	48 nM	CCN(CC)CCNS(=O)(=O)c1ccc2[nH]c(=O)c3cccc4c3c2c1C4 [Example 13]
91 nM	91 nM	CCN(CC)CCCNS(=O)(=O)c1ccc2[nH]c(=O)c3cccc4c3c2c1C4 [Example 14]
114 nM	114 nM	O=c1[nH]c2ccc(S(=O)(=O)NCCc3ccccn3)c3c2c2c(cccc12)C3 [Example 15]
92 nM	92 nM	O=c1[nH]c2ccc(S(=O)(=O)NN3CCOCC3)c3c2c2c(cccc12)C3 [Example 16]
154 nM	154 nM	CN(C)CCN(C)S(=O)(=O)c1ccc2[nH]c(=O)c3cccc4c3c2c1C4 [Example 17]
110 nM	110 nM	CN(C)CCCN(C)S(=O)(=O)c1ccc2[nH]c(=O)c3cccc4c3c2c1C4 [Example 18]
52 nM	52 nM	CN1CCN(CCCNS(=O)(=O)c2ccc3[nH]c(=O)c4cccc5c4c3c2C5)CC1 [Example 19]
77 nM	77 nM	CCN(CC)CCNS(=O)(=O)c1ccc2[nH]c(=O)c3cccc4c3c2c1C4 [Example 20]

IC50 [1]	IC50 (examples table, read-out: IC50)	SMILES
64 nM	64 nM	CN(C)CCCN1CCN(S(=O)(=O)c2ccc3[nH]c(=O)c4cccc5c4c3c2C5)CC1 [Example 21]
115 nM	115 nM	O=c1[nH]c2ccc(S(=O)(=O)N3CCN(CCN4CCCC4)CC3)c3c2c2c(cccc12)C3 [Example 22]
166 nM	166 nM	CN1CCC(N2CCN(S(=O)(=O)c3ccc4[nH]c(=O)c5cccc6c5c4c3C6)CC2)CC1 [Example 23]
929 nM	929 nM	O=c1[nH]c2ccc(S(=O)(=O)N3CCN(c4ccncc4)CC3)c3c2c2c(cccc12)C3 [Example 24]
165 nM	165 nM	CN1CCC(CN2CCN(S(=O)(=O)c3ccc4[nH]c(=O)c5cccc6c5c4c3C6)CC2)CC1 [Example 25]
314 nM	314 nM	O=c1[nH]c2ccc(S(=O)(=O)N3CCN(CCN4CCCCC4)CC3)c3c2c2c(cccc12)C3 [Example 26]
634 nM	634 nM	O=c1[nH]c2ccc(S(=O)(=O)N3CCN(CCN4CCOCC4)CC3)c3c2c2c(cccc12)C3 [Example 27]
406 nM	406 nM	O=c1[nH]c2ccc(S(=O)(=O)N3CCN(Cc4ccncc4)CC3)c3c2c2c(cccc12)C3 [Example 28]
109 nM	109 nM	CN(C)CCCN1CCN(S(=O)(=O)c2ccc3[nH]c(=O)c4cccc5c4c3c2C5)CC1 [Example 29]
264 nM	264 nM	O=c1[nH]c2ccc(S(=O)(=O)N3CCN(CCN4CCCC4)CC3)c3c2c2c(cccc12)C3 [Example 30]
45 nM	45 nM	CN1CCN(CC(=O)Nc2ccc3[nH]c(=O)c4cccc5c4c3c2C5)CC1 [Example 31, 2-(4-Methyl-piperazin-1-yl)-N-(5-oxo-5,9-dihydro-4H-cyclopenta[lmn]phenanthridin-1-yl)-acetamide]
36 nM	36 nM	CC(=O)N1CCN(CC(=O)Nc2ccc3[nH]c(=O)c4cccc5c4c3c2C5)CC1 [Example 32, 2-(4-Acetyl-piperazin-1-yl)-N-(5-oxo-5,9-dihydro-4H-cyclopenta[lmn]phenanthridin-1-yl)-acetamide]
218 nM	218 nM	O=C(CN1CCN(Cc2ccccc2)CC1)Nc1ccc2[nH]c(=O)c3cccc4c3c2c1C4 [Example 33]
58 nM	58 nM	O=C(CN1CCOCC1)Nc1ccc2[nH]c(=O)c3cccc4c3c2c1C4 [Example 34]
193 nM	193 nM	O=C(CN1CCN(CC2CCCO2)CC1)Nc1ccc2[nH]c(=O)c3cccc4c3c2c1C4 (stereo not shown) [Example 35]
188 nM	188 nM	O=C(CNCCCc1ccccc1)Nc1ccc2[nH]c(=O)c3cccc4c3c2c1C4 [Example 36]
178 nM	178 nM	O=C(CNCCCN1CCOCC1)Nc1ccc2[nH]c(=O)c3cccc4c3c2c1C4 [Example 37]
175 nM	175 nM	O=C(CNCCN1CCCCC1)Nc1ccc2[nH]c(=O)c3cccc4c3c2c1C4 [Example 38]
219 nM	219 nM	O=C(CN1CCN(c2ccc(C(F)(F)F)cc2)CC1)Nc1ccc2[nH]c(=O)c3cccc4c3c2c1C4 [Example 39]

IC50 [1]	IC50 (examples table, read-out: IC50)	SMILES
230 nM	230 nM	O=C(CN1CCN(c2ccc(F)cc2)CC1)Nc1ccc2[nH]c(=O)c3cccc4c3c2c1C4 [Example 40]
336 nM	336 nM	O=C(CN1CCN(c2ccc(F)cc2F)CC1)Nc1ccc2[nH]c(=O)c3cccc4c3c2c1C4 [Example 41]
158 nM	158 nM	O=C(CN1CCN(c2ccccn2)CC1)Nc1ccc2[nH]c(=O)c3cccc4c3c2c1C4 [Example 42]
94 nM	94 nM	O=C(CN1CCC(N2CCCC2)CC1)Nc1ccc2[nH]c(=O)c3cccc4c3c2c1C4 [Example 44]
133 nM	133 nM	CCN(CC)CCNCC(=O)Nc1ccc2[nH]c(=O)c3cccc4c3c2c1C4 [Example 45]
118 nM	118 nM	CCN(CC)CCCNCC(=O)Nc1ccc2[nH]c(=O)c3cccc4c3c2c1C4 [Example 46]
457 nM	457 nM	O=C(CNCCN1CCOCC1)Nc1ccc2[nH]c(=O)c3cccc4c3c2c1C4 [Example 47]
144 nM	144 nM	CN(C)CCCN(C)CC(=O)Nc1ccc2[nH]c(=O)c3cccc4c3c2c1C4 [Example 48]
72 nM	72 nM	CN(C)CCCN1CCN(CC(=O)Nc2ccc3[nH]c(=O)c4cccc5c4c3c2C5)CC1 [Example 49]
115 nM	115 nM	CN(C)CCN1CCN(CC(=O)Nc2ccc3[nH]c(=O)c4cccc5c4c3c2C5)CC1 [Example 50]
178 nM	178 nM	CN1CCCC(CN2CCN(CC(=O)Nc3ccc4[nH]c(=O)c5cccc6c5c4c3C6)CC2)C1 (stereo not shown) [Example 51]
96 nM	96 nM	CN1CCC(CN2CCN(CC(=O)Nc3ccc4[nH]c(=O)c5cccc6c5c4c3C6)CC2)CC1 [Example 52]
119 nM	119 nM	CN1CCC(N2CCN(CC(=O)Nc3ccc4[nH]c(=O)c5cccc6c5c4c3C6)CC2)CC1 [Example 53]
267 nM	267 nM	O=C(CN1CCN(Cc2ccncc2)CC1)Nc1ccc2[nH]c(=O)c3cccc4c3c2c1C4 [Example 54]
558 nM	558 nM	O=C(CN1CCN(CCN2CCOCC2)CC1)Nc1ccc2[nH]c(=O)c3cccc4c3c2c1C4 [Example 55]
204 nM	204 nM	O=C(CN1CCN(c2ccncc2)CC1)Nc1ccc2[nH]c(=O)c3cccc4c3c2c1C4 [Example 56]
55 nM	55 nM	CN(C)CCN(C)CC(=O)Nc1ccc2[nH]c(=O)c3cccc4c3c2c1C4 [Example 57]
390 nM	390 nM	O=C(CN1CCN(CCN2CCCC2)CC1)Nc1ccc2[nH]c(=O)c3cccc4c3c2c1C4 [Example 58]
